Assays:
[1] = Partition coefficient of compound in to octanol/buffer; type: physicochemical; conditions: octanol/water
Rattus norvegicus [2] = species: Rattus norvegicus; assay: Equilibrium dissociation constant based on membrane concentration in rat smooth muscle; type: ADME, Muscle tissue
Rattus norvegicus [3] = species: Rattus norvegicus; assay: Equilibrium dissociation constant based on aqueous concentration in rat smooth muscle; type: ADME, Muscle tissue
[4] = sarcoplasmic reticulum membrane
Description: Partition coefficient of compound in to biological membranes

Rattus norvegicus [5] = species: Rattus norvegicus; assay: Equilibrium dissociation constant based on membrane concentration in rat cardiac muscle

Partition coefficient [1] | Partition coefficient [4] | Kd (Rattus norvegicus [5]) | SMILES | Kd (Rattus norvegicus [2]) | Kd (Rattus norvegicus [3])
0.7 | – | – | CC(C)(C)NC[C@H](O)COc1nsnc1N1CCOCC1 [TIMOLOL] | – | –
18 | 1200 | – | CC(C)NCC(O)COc1cccc2ccccc12 (stereo not drawn) [PROPRANOLOL] | – | –
40 | 13000 | 1800 nM | COC(=O)C1=C(C)NC(C)=C(C(=O)OCC(C)C)C1c1ccccc1[N+](=O)[O-] (stereo not drawn) [NISOLDIPINE] | – | 0.14 nM
730 | 6300 | – | COCCOC(=O)C1=C(C)NC(C)=C(C(=O)OC(C)C)C1c1cccc([N+](=O)[O-])c1 (stereo not drawn) [NIMODIPINE] | 690 nM | 0.11 nM
– | – | – | COC(=O)C1=C(C)NC(C)=C(C(=O)OC)C1c1ccccc1[N+](=O)[O-] [NIFEDIPINE] | 23000 nM | 0.41 nM

SMILES | Partition coefficient [1] | Partition coefficient [4] | Kd (Rattus norvegicus [5]) | Kd (Rattus norvegicus [2]) | Kd (Rattus norvegicus [3])
CCOC(=O)C1=C(COCCN)NC(C)=C(C(=O)OC)C1c1ccccc1Cl (stereo not drawn) [AMLODIPINE] | 30 | 19000 | – | 23000 nM | 1.2 nM
CN/C(=N/CCSCc1nc[nH]c1C)NC#N [CIMETIDINE] | 1 | – | – | – | –

Source: ChEMBL document CHEMBL1125846, “Reevaluating equilibrium and kinetic binding parameters for lipophilic drugs based on a structural model for drug interaction with biological membranes” (J Med Chem, 1991)
